Results reported in article PMC10746543, “Design principles for cyclin K molecular glue degraders” (Nature Chemical Biology, 2023).
“And” between values parts separate entries of the source, which are not always exact repeats. Equal entries are not always repeated. Where two headings read alike, the source gives them in different places.

Key:
HEK293T cells = assay: Drug sensitivity assay (CellTiter-Glo viability) with or without MLN4924 pretreatment; assay type: cell-based, human; settings: for EC50: Homo sapiens, HEK-293T; for Toxicity rescue: MLN4924-mediated cytotoxicity rescue, 10 µM used where n.d.
Outline: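 HEK293T–Cas9 cells at 0.15 × 10^6 ml^−1 were treated with DMSO or 100 nM MLN4924 before plating. Test drugs were added 2 h later and exposure lasted 3 days. Viability was read by CellTiter-Glo luminescence and expressed relative to DMSO controls.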

[1] = system: cyclin K–eGFP degradation reporter; assay: Cyclin K reporter stability analysis (dual-color cyclin K–eGFP reporter); assay type: cell-based, human
Outline: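 Cells (HEK293T–Cas9, reporter-expressing) at 1 × 10^6 ml^−1; 5 h compound or DMSO; flow cytometry; gMFI eGFP ÷ mCherry on round mCherry-positive events; normalized to 3 DMSO controls.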

CDK12–cyclin K and DDB1 = target: T1, CDK12–cyclin K and DDB1 (Homo sapiens, UniProt Q16531+Q9NYV4, K965R); assay: TR-FRET ternary complex formation assay (compound titration); assay type: binding; settings: for fold lower affinity than DS11: TR-FRET complex formation; for TR-FRET signal at compound concentration: replicate titrations
T1 construct: His6–CDK12 (a.a. 713–1,052); full-length or beta-propeller B domain deletion (ΔBPB: a.a. 396–705 deleted) constructs of His6–DDB1ΔBPB, StrepII–Avi–DDB1, or His6–Spy–DDB1; made in house; host or cells: Trichoplusia ni High Five insect cells (baculovirus)
T1 sequence (Q9NYV4 713-1052 K965R): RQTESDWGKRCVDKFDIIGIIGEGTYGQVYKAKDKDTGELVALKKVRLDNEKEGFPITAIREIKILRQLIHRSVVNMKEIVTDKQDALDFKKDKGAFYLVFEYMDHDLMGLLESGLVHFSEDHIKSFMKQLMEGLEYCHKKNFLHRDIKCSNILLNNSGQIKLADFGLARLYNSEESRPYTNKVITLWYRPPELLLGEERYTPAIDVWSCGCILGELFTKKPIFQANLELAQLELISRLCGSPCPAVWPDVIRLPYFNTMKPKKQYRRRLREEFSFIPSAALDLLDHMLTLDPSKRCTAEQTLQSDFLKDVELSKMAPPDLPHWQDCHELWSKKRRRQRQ
T1 sequence (O75909 1-267 partner): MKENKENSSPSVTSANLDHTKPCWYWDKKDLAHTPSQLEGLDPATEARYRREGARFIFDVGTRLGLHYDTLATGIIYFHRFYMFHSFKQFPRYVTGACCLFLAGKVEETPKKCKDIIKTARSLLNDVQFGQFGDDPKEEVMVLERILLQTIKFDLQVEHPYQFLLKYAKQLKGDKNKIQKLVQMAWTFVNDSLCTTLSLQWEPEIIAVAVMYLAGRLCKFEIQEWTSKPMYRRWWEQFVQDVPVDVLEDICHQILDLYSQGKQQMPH
T1 sequence (Q16531 whole entry): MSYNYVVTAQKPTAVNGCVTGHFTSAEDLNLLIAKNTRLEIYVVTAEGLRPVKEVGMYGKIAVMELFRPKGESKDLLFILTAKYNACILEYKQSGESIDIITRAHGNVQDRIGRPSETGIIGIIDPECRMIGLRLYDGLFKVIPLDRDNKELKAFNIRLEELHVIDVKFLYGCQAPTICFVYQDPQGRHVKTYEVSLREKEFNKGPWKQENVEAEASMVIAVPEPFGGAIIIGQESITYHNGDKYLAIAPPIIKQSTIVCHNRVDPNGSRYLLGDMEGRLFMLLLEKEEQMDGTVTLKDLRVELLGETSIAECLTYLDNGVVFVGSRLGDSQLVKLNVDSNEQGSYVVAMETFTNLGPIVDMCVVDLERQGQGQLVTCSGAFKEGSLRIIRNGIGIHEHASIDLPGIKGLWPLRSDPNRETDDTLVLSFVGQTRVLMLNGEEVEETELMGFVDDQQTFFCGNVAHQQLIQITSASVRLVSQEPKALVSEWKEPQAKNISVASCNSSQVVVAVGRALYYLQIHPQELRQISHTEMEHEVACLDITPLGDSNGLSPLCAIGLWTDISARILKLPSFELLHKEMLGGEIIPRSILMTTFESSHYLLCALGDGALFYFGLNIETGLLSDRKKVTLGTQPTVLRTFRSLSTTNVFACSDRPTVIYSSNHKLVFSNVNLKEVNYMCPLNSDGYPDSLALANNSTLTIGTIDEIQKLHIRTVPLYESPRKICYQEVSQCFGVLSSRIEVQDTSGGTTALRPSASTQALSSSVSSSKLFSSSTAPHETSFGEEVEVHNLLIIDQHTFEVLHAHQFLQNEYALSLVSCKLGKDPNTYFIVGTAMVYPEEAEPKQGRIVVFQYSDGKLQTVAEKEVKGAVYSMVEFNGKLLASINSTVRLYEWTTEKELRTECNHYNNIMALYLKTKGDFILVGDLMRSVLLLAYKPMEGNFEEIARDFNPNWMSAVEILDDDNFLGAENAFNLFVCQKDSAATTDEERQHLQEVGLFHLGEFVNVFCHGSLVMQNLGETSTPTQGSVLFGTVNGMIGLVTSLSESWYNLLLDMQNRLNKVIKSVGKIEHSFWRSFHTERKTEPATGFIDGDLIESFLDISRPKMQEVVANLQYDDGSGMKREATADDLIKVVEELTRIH
Outline: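 Read-out used a 70 μs delay to cut background fluorescence; TR-FRET signal taken as the 520 nm/490 nm emission ratio.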

[2] = Supplementary Table 2, HEK293T viability, 72 h, compound alone, read-out: Cellular assays EC50
[3] = source data sheet correlations, read-out: DC50
[4] = compound concentration 79.2001 nM
[5] = compound concentration 158.4 nM
[6] = compound concentration 309.6 nM
[7] = compound concentration 626.401 nM
[8] = compound concentration 1252.8 nM
[9] = compound concentration 9936.01 nM
[10] = compound concentration 20016 nM
[11] = in vitro complex formation, 50 nM CDK12–cyclin K, 100 nM DDB1, text and figures, read-out: TR-FRET EC50
[12] = sheet MOESM7, read-out: log TR-FRET EC50 (converted)
[13] = source data sheet correlations, read-out: TR-FRET EC50
[14] = Supplementary Table 2, HEK293T cycK-eGFP reporter, 5 h, read-out: Cellular assays DC50
[15] = Supplementary Table 2, read-out: TR-FRET EC50 TR-FRET

SMILES | EC50 (HEK293T cells; [2]) [nM] | Toxicity rescue (HEK293T cells; Supplementary Table 2) [%] | DC50 [1, 3] [nM] | TR-FRET signal at compound concentration (CDK12–cyclin K and DDB1; compound concentration 4.68 nM) | TR-FRET signal at compound concentration (CDK12–cyclin K and DDB1; compound concentration 21.6 nM) | TR-FRET signal at compound concentration (CDK12–cyclin K and DDB1; compound concentration 36 nM) | TR-FRET signal at compound concentration (CDK12–cyclin K and DDB1; [4]) | TR-FRET signal at compound concentration (CDK12–cyclin K and DDB1; [5]) | TR-FRET signal at compound concentration (CDK12–cyclin K and DDB1; [6]) | TR-FRET signal at compound concentration (CDK12–cyclin K and DDB1; [7]) | TR-FRET signal at compound concentration (CDK12–cyclin K and DDB1; [8]) | TR-FRET signal at compound concentration (CDK12–cyclin K and DDB1; compound concentration 2448 nM) | TR-FRET signal at compound concentration (CDK12–cyclin K and DDB1; [9]) | TR-FRET signal at compound concentration (CDK12–cyclin K and DDB1; [10]) | EC50 (CDK12–cyclin K and DDB1; [11]) [nM] | EC50 (CDK12–cyclin K and DDB1; [12]) [nM] | EC50 (CDK12–cyclin K and DDB1; [13]) [nM] | DC50 [1, 14] [nM] | also measured
CC[C@H](CO)Nc1nc(NCCCCCc2ccccc2)c2ncn(C(C)C)c2n1 [DS02] | > 10000 | 0 | 1780 | 0.1674 and 0.1915 | 0.2669 and 0.3147 | 0.462 and 0.5388 | 0.7422 and 0.8389 | 1.142 and 1.242 | 1.648 and 1.83 | 2.134 and 2.344 | 2.523 and 2.691 | 2.757 and 2.986 | 2.985 and 3.212 | 3.04 and 3.2335 | 285 ± 19 | 285 | 285 |  | fold lower affinity than DS11 (CDK12–cyclin K and DDB1): 5-10 fold
CC[C@H](CO)Nc1nc(NCc2ccc(-c3ccc(-c4ccccc4)cc3)cc2)c2ncn(C(C)C)c2n1 [DS04] | > 10000 | 0 |  | 0.1371 and 0.1443 | 0.1368 and 0.1484 | 0.135 and 0.1532 | 0.1341 and 0.1519 | 0.132 and 0.1491 | 0.1322 and 0.1487 | 0.1292 and 0.1438 | 0.1234 and 0.1372 | 0.1186 and 0.1335 | 0.1139 and 0.1272 | 0.1066 and 0.1169 |  |  |  | > 10000 | DDB1–CDK12 complex formation, result in words (CDK12–cyclin K and DDB1; in vitro TR-FRET): abolished binding
CC(C)n1cnc2c(NCc3ccc(-c4ccccn4)cc3)nc(NCc3c(Cl)cncc3Cl)nc21 [DS48] | 907 | 313 | 366 |  |  |  |  |  |  |  |  |  |  |  | 46 ± 2 | 46 | 46 |  | TR-FRET signal at compound concentration 0.468 nM (CDK12–cyclin K and DDB1; compound concentration 0.468 nM, raw titration data): 0.2749 and 0.2901; TR-FRET signal at compound concentration 2.16 nM (CDK12–cyclin K and DDB1; compound concentration 2.16 nM, raw titration data): 0.3467 and 0.3488; TR-FRET signal at compound concentration 3.6 nM (CDK12–cyclin K and DDB1; compound concentration 3.6 nM, raw titration data): 0.4769 and 0.4631; TR-FRET signal at compound concentration 7.92001 nM (CDK12–cyclin K and DDB1; compound concentration 7.92001 nM, raw titration data): 0.7379 and 0.6676; TR-FRET signal at compound concentration 15.84 nM (CDK12–cyclin K and DDB1; compound concentration 15.84 nM, raw titration data): 1.149 and 0.9938; TR-FRET signal at compound concentration 30.96 nM (CDK12–cyclin K and DDB1; compound concentration 30.96 nM, raw titration data): 1.778 and 1.5795; TR-FRET signal at compound concentration 62.6401 nM (CDK12–cyclin K and DDB1; compound concentration 62.6401 nM, raw titration data): 2.574 and 2.417; TR-FRET signal at compound concentration 125.28 nM (CDK12–cyclin K and DDB1; compound concentration 125.28 nM, raw titration data): 3.287 and 3.206; TR-FRET signal at compound concentration 244.8 nM (CDK12–cyclin K and DDB1; compound concentration 244.8 nM, raw titration data): 3.511 and 3.701; TR-FRET signal at compound concentration 993.601 nM (CDK12–cyclin K and DDB1; compound concentration 993.601 nM, raw titration data): 3.896 and 4.02; TR-FRET signal at compound concentration 2001.6 nM (CDK12–cyclin K and DDB1; compound concentration 2001.6 nM, raw titration data): 3.877 and 4.06
CC(C)n1cnc2c(NCc3ccc(-c4ccccn4)cc3)nc(N[C@@H](Cc3ccc(OCc4ccccc4)cc3)c3nnc[nH]3)nc21 [DS58] | 1780 | 461 | 2020 |  |  |  |  |  |  |  |  |  |  |  | 948 ± 61 | 948 | 948 |  | EC50 (HEK293T cells; Supplementary Fig. 5, HEK293T, CellTiter Glo, 72h, read-out: Viability EC50, no MLN4924): 1750 nM; TR-FRET signal at compound concentration 4.68 nM (CDK12–cyclin K and DDB1; compound concentration 4.68 nM, raw titration data): 0.2093 and 0.2396; TR-FRET signal at compound concentration 21.6 nM (CDK12–cyclin K and DDB1; compound concentration 21.6 nM, raw titration data): 0.2345 and 0.3021; TR-FRET signal at compound concentration 36 nM (CDK12–cyclin K and DDB1; compound concentration 36 nM, raw titration data): 0.286 and 0.3105; TR-FRET signal at compound concentration 79.2001 nM (CDK12–cyclin K and DDB1; compound concentration 79.2001 nM, raw titration data): 0.3776 and 0.414; TR-FRET signal at compound concentration 158.4 nM (CDK12–cyclin K and DDB1; compound concentration 158.4 nM, raw titration data): 0.5529 and 0.574; TR-FRET signal at compound concentration 309.6 nM (CDK12–cyclin K and DDB1; compound concentration 309.6 nM, raw titration data): 0.8665 and 0.8767; TR-FRET signal at compound concentration 626.401 nM (CDK12–cyclin K and DDB1; compound concentration 626.401 nM, raw titration data): 1.353 and 1.369; TR-FRET signal at compound concentration 1252.8 nM (CDK12–cyclin K and DDB1; compound concentration 1252.8 nM, raw titration data): 2.037 and 2.014; TR-FRET signal at compound concentration 2448 nM (CDK12–cyclin K and DDB1; compound concentration 2448 nM, raw titration data): 2.68 and 2.699; TR-FRET signal at compound concentration 9936.01 nM (CDK12–cyclin K and DDB1; compound concentration 9936.01 nM, raw titration data): 3.329 and 3.445; TR-FRET signal at compound concentration 20016 nM (CDK12–cyclin K and DDB1; compound concentration 20016 nM, raw titration data): 3.076 and 3.1
CC[C@H](CO)Nc1nc(NCCCC2CCCC2)c2ncn(C(C)C)c2n1 [DS33] | > 10000 | 0 |  |  |  |  |  |  |  |  |  |  |  |  |  | 1270 |  | > 10000 | EC50 (CDK12–cyclin K and DDB1; [15]): 1270 nM; TR-FRET signal, individual replicate (CDK12–cyclin K and DDB1; compound concentration 4.68 nM): 0.2064 and 0.239; TR-FRET signal, individual replicate (CDK12–cyclin K and DDB1; compound concentration 21.6 nM): 0.2251 and 0.2479; TR-FRET signal, individual replicate (CDK12–cyclin K and DDB1; compound concentration 36 nM): 0.2332 and 0.272; TR-FRET signal, individual replicate (CDK12–cyclin K and DDB1; [4]): 0.2704 and 0.303; TR-FRET signal, individual replicate (CDK12–cyclin K and DDB1; [5]): 0.3276 and 0.3592; TR-FRET signal, individual replicate (CDK12–cyclin K and DDB1; [6]): 0.4277 and 0.464; TR-FRET signal, individual replicate (CDK12–cyclin K and DDB1; [7]): 0.5723 and 0.6562; TR-FRET signal, individual replicate (CDK12–cyclin K and DDB1; [8]): 0.7875 and 0.9047; TR-FRET signal, individual replicate (CDK12–cyclin K and DDB1; compound concentration 2448 nM): 1.007 and 1.15; TR-FRET signal, individual replicate (CDK12–cyclin K and DDB1; [9]): 1.305 and 1.477; TR-FRET signal, individual replicate (CDK12–cyclin K and DDB1; [10]): 1.367 and 1.47
CC[C@H](CO)Nc1nc(NCc2ccc(CN(C)C)cc2)c2ncn(C(C)C)c2n1 [DS07] | > 10000 | 0 |  |  |  |  |  |  |  |  |  |  |  |  |  | 285 |  | > 10000 | EC50 (CDK12–cyclin K and DDB1; [15]): 285 nM; TR-FRET signal, individual replicate (CDK12–cyclin K and DDB1; compound concentration 4.68 nM): 0.1397 and 0.1571; TR-FRET signal, individual replicate (CDK12–cyclin K and DDB1; compound concentration 21.6 nM): 0.1381 and 0.1543; TR-FRET signal, individual replicate (CDK12–cyclin K and DDB1; compound concentration 36 nM): 0.1446 and 0.1595; TR-FRET signal, individual replicate (CDK12–cyclin K and DDB1; [4]): 0.1442 and 0.1633; TR-FRET signal, individual replicate (CDK12–cyclin K and DDB1; [5]): 0.1697 and 0.1741; TR-FRET signal, individual replicate (CDK12–cyclin K and DDB1; [6]): 0.1833 and 0.1813; TR-FRET signal, individual replicate (CDK12–cyclin K and DDB1; [7]): 0.2131 and 0.2; TR-FRET signal, individual replicate (CDK12–cyclin K and DDB1; [8]): 0.2455 and 0.2204; TR-FRET signal, individual replicate (CDK12–cyclin K and DDB1; compound concentration 2448 nM): 0.2509 and 0.2343; TR-FRET signal, individual replicate (CDK12–cyclin K and DDB1; [9]): 0.2701 and 0.2518; TR-FRET signal, individual replicate (CDK12–cyclin K and DDB1; [10]): 0.2482 and 0.2271
CC[C@H](CO)Nc1nc(NCCc2ccccc2)c2ncn(C(C)C)c2n1 [DS31] | > 10000 | 0 |  | 0.211 and 0.2282 | 0.2112 and 0.2225 | 0.2194 and 0.2418 | 0.2283 and 0.2565 | 0.2533 and 0.2816 | 0.2963 and 0.3231 | 0.3477 and 0.3849 | 0.4331 and 0.4555 | 0.5457 and 0.5736 | 0.6887 and 0.7282 | 0.6557 and 0.645 | 1230 ± 134 |  |  | > 10000 | fold lower affinity than DS11 (CDK12–cyclin K and DDB1): 12-22 fold
